Data on one compound can be found in patent US12595250B2, “Substituted pyrimidine compounds as multifunctional radical quenchers and their uses” (ARIZONA BOARD OF REGENTS ON BEHALF OF ARIZONA STATE …, priority 2016, dated 2026).

Data set [1] can be described thus: In vitro microsomal stability assay. The class given is in vitro ADME. The note with it: pH 7.4, bovine liver microsomes 1 mg/mL, 25 μM compound, 37° C., NADPH, read-out: Recovery (%) of compound after reaction with activated microsomes. As for the experimental part:
Liver tissues were diced into small pieces and then washed with isotonic sucrose buffer (0.25 M sucrose, 10 mM Tris-HCl, 0.5 mM EDTA, pH 7.8). The diced tissue was passed through a precooled meat grinder and mixed with three-fold ice cold sucrose buffer supplemented with a mixture of protease inhibitors. The suspension was homogenized in a Waring blender for 25 s at high speed. At this stage, the pH of the suspension was adjusted to 7.4 with 1 M Tris base. The homogenate was centrifuged for 20 min at 1200×g to remove cell debris. The supernatant suspension was homogenized in a tight fitting Teflon-glass Potter-Elvehjem homogenizer and then centrifuged twice at 10,000×g for 20 min, collecting the supernatant each time to remove mitochondria. The floating fat layer was carefully removed by filtering the supernatant through layers of cheesecloth. The supernatant was centrifuged at 150,000×g for 30 min (Beckman-Coulter ultracentrifuge, XL-100K-01, SW 55 Ti rotor). The pellet (microsomal fraction) was suspended in 0.25 M sucrose buffer containing 10 mM Tris-HCl, pH 7.4, with 20% (v/v) glycerol, and centrifuged once more at 150,000×g. The pellet was resuspended in sucrose buffer with 20% (v/v) glycerol. The protein concentration after resuspension was approximately 20 mg/mL, as determined by BCA protein assay (Pierce Chemical) using bovine serum albumin as a standard. Aliquots of microsomal suspensions were stored at −80° C.
In vitro metabolic stability was determined in bovine liver microsomes at a protein concentration of 1 mg/mL in 50 mM phosphate buffer mixture, pH 7.4, containing 5 mM MgCl2 in a final incubation volume of 0.5 mL. Each test compound was added to a final concentration of 25 μM. This mixture was pre-warmed to 37° C. prior to starting the reaction by the addition of β-NADPH to 1 mM final concentration. After incubation for 30 min at 37° C., the reaction was quenched by the addition of 1 mL of propanol, vortexed for 2 min and centrifuged at 15,000×g for 10 min to pellet the precipitated protein. The resulting supernatant was pipetted out and then concentrated under diminished pressure. A parallel incubation of the test compound with deactivated microsomes (quenched immediately with propanol) lacking β-NADPH served as a control and was run for each test agent to detect microsome-independent degradation. The sample was reconstituted in 130 μL MeOH and centrifuged again at 15,000×g for 3 min. The supernatant was removed and 4 μM fluorene was added as an internal standard before HPLC analysis. HPLC analyses were performed on a Zorbax SB-Phenyl reversed phase analytical (150×4.6 mm, 5 m) HPLC column using a mobile phase consisting of MeOH/H2O. A linear gradient of (50:50 MeOH/H2O→100:0 MeOH/H2O) was employed over a period of 14 min at a flow rate of 1 mL/min. Metabolic stability was expressed as percent of control remaining. The experiments were carried out in duplicate to verify the results.
(Microsomes from liver hold many membrane-bound enzymes, among them those of drug oxidation.)

Data set [2] has as its system FRDA lymphocytes. The data set can be described thus: Lipid peroxidation assay (C11-BODIPY 581/591, FACS). It counts as cell-based, Human. The note with it: high concentration, 5 mM DEM. As for the experimental part: The bar graph represents the percentage of the median mean fluorescence intensity of C11-BODIPY-green fluorescence relative to a treated control is shown. Data are expressed as the mean±SEM (n=3).
Human mitochondrial disease cell lines, Friedreich's ataxia lymphocytes (GM15850), and Leigh's syndrome lymphocytes (GM13740) were obtained from Coriell Cell Repositories (Camden, NJ). Lymphocytes were cultured in RPMI-1640 medium (Gibco, Life Technologies, Grand Island, NY) with 15% fetal calf serum, 2 mM glutamine (HyClone, South Logan, UT) and 1% penicillin-streptomycin antibiotic supplement (Cellgro, Manassas, VA). Cells were passaged every other day to maintain them in log phase growth and kept at a nominal concentration of 5-10×10^5 cell/mL. A CoQ10 deficient lymphocyte cell line (GM17932) was obtained from Coriell Cell Repositories. […]
Lipid peroxidation was measured by a quantitative FACS assay using the oxidation-sensitive fatty acid probe C11-BODIPY^581/591 (Molecular Probe) as described in art (Goldschmidt, R., et al. Bioorg. Med. Chem. 2013, 21, 969; Khdour, 0. M., et al. ACS Med. Chem. Lett. 2013, 4, 724; and Arce, P. M., et al. Bioorg. Med. Chem. 2012, 20, 5188). […] Cells were resuspended in phosphate buffered saline and were analyzed immediately by FACS (C6 Accuri, BD Biosciences, San Jose, CA), using a 488 nm excitation laser and the FL1-H channel 530±15 nm emission filter. The generation of lipid peroxide was detected as a result of the oxidation of the polyunsaturated butadienyl portion of the dye, resulting in a shift of the fluorescence emission peak from red to green. In each analysis, 10,000 events were recorded after cell debris were electronically gated out. […] Results were expressed as a percentage of the median mean fluorescence intensity of C11-BODIPY-green relative to the treated control (DEM).

Data set [3] has as its system FRDA lymphocytes. Description: Cellular ATP concentration assay (luciferin-luciferase). It counts as cell-based, Human. The note with it: Homo sapiens, Lymphocyte, incubation 48 h, read-out: Total ATP level (% control) FRDA lymphocytes.

`CCCCCCCCCCCCCCc1nc(OC2CCC2)nc(OC2CCC2)c1O` [Compound 3b, 2,4-Dicyclobutanoxy-6-tetradecylpyrimidin-5-ol]: the recovery at 30 min, 25 μM in data set [1] was determined as 72 ± 3%. Moreover, in the data set with FRDA lymphocytes [2], the “Suppression of lipid peroxidation (in words, FIG. 2)” value is “slightly efficient”. Further, the activity at 1 µM in the data set with FRDA lymphocytes [3] (1 μM) is 99 ± 1%. The activity at 5 µM with FRDA lymphocytes [3] (5 μM) worked out at 98 ± 2%. Further, the activity at 20 µM in the data set with FRDA lymphocytes [3] (20 μM) came out at 94 ± 2%.
